# “And” between values parts separate entries of the source, which are not always exact repeats. Identical values can stand only once.
# Tested on: intraocular pressure in normotensive New Zealand White rabbits
# Assay: Example 3 intraocular pressure after repeated topical and subcutaneous administration (pneumotonometer)
# Type: in vivo
# Set-up: IOP, individual animal / IOP, group Average: unit not given here
# Method: To measure the tolerability and effect of Compound 1 (sodium salt) on intraocular pressure following repeated topical and subcutaneous administration, normotensive New Zealand White rabbits were treated with Compound 1 (sodium salt). Animals were acclimated 1 to 2 times per day to the intraocular pressure (IOP) measurement procedures prior to initiation of the study to determine baseline IOP levels. IOP acclimation was performed in the two weeks prior to study start for a total of 5 days. Animals with unacceptable IOP values were excluded from the study. Prior to taking all IOP measurements, 1 to 2 drops of a 0.5% proparacaine solution were applied to the eye as a topical anesthetic. OP measurements were performed with a pneumotonometer. Test and control formulations were administered to the animals once or twice daily topically into both eyes or subcutaneously starting on Day 1 according to TABLE 20 and TABLE 21 below. PM dosing, where applicable, was performed ˜8 hours after AM dosing. IOP measurements were performed twice (AM and PM) at baseline (prior to the start of dosing), twice (AM and PM) on Days 1 and 7, and once daily (AM) on Days 2-6 and Day 8. Prior to taking all IOP measurements, 1 to 2 drops of a 0.5% proparacaine solution were applied to the eye as a topical anesthetic. IOP measurements were performed with a pneumotonometer. AM IOP measurements were performed 2 hours after AM dosing; the only exceptions were Day 8 AM measurements, which were performed 24 hours after the final dose. PM IOP measurements were performed ˜5 hours (baseline and Day 1) or ˜4 hours (Day 7) after AM IOP measurements, prior to PM dosing, with at least 15 minutes elapsing between anesthetic application for PM IOP measurements and PM dosing. The final round of slit-lamp examinations was performed on Day 8.
# [1] = Group 3: 1.2 mg/eye topical sodium salt BID, Day 5, AM, OD
# [2] = Group 3: 1.2 mg/eye topical sodium salt BID, Day 5, AM, OS
structure (smiles),measurement,setting,value
COC(=O)N[C@@H](Cc1ccccc1)C(=O)N[C@@H](Cc1ccc(NS(=O)(=O)O)cc1)c1csc(-c2cccs2)n1 [Compound 1],"IOP, individual animal","Group 3: 1.2 mg/eye topical sodium salt BID, Day 4, AM, OS",23.3 and 21.7 and 24.2 and 24.5
same,"IOP, group Average",[1],21.5
same,"IOP, individual animal",[1],21.5 and 18.8 and 22.3 and 21.2
same,"IOP, group Average",[2],22.0
same,"IOP, individual animal",[2],22.3 and 19.8 and 23.5 and 20.7
same,"IOP, group Average","Group 3: 1.2 mg/eye topical sodium salt BID, Day 6, AM, OD",24.2
same,"IOP, group Average","Group 3: 1.2 mg/eye topical sodium salt BID, Day 6, AM, OS",24.7
same,"IOP, group Average","Group 3: 1.2 mg/eye topical sodium salt BID, Day 7, AM, OD",21.3
same,"IOP, group Average","Group 3: 1.2 mg/eye topical sodium salt BID, Day 7, AM, OS",22.0
same,"IOP, group Average","Group 3: 1.2 mg/eye topical sodium salt BID, Day 7, PM, OD",23.7
same,"IOP, group Average","Group 3: 1.2 mg/eye topical sodium salt BID, Day 7, PM, OS",24.2
same,"IOP, group Average","Group 3: 1.2 mg/eye topical sodium salt BID, Day 8, AM (24 hours after final dose), OD",23.4
same,"IOP, group Average","Group 3: 1.2 mg/eye topical sodium salt BID, Day 8, AM (24 hours after final dose), OS",23.9
same,"IOP, group Average","Group 4: 1.2 mg/eye topical sodium salt QD, Day 1, AM, OD",21.2
same,"IOP, group Average","Group 4: 1.2 mg/eye topical sodium salt QD, Day 1, AM, OS",21.4
same,"IOP, group Average","Group 4: 1.2 mg/eye topical sodium salt QD, Day 1, PM, OD",23.1
same,"IOP, group Average","Group 4: 1.2 mg/eye topical sodium salt QD, Day 1, PM, OS",23.2
same,"IOP, group Average","Group 4: 1.2 mg/eye topical sodium salt QD, Day 2, AM, OD",20.0
same,"IOP, group Average","Group 4: 1.2 mg/eye topical sodium salt QD, Day 2, AM, OS",20.1
same,"IOP, group Average","Group 4: 1.2 mg/eye topical sodium salt QD, Day 3, AM, OD",20.8
same,"IOP, group Average","Group 4: 1.2 mg/eye topical sodium salt QD, Day 3, AM, OS",20.9
same,"IOP, group Average","Group 4: 1.2 mg/eye topical sodium salt QD, Day 4, AM, OD",21.6
same,"IOP, group Average","Group 4: 1.2 mg/eye topical sodium salt QD, Day 4, AM, OS",22.6
same,"IOP, group Average","Group 4: 1.2 mg/eye topical sodium salt QD, Day 5, AM, OD",21.0
same,"IOP, group Average","Group 4: 1.2 mg/eye topical sodium salt QD, Day 5, AM, OS",21.2
same,"IOP, group Average","Group 4: 1.2 mg/eye topical sodium salt QD, Day 6, AM, OD",22.5
same,"IOP, group Average","Group 4: 1.2 mg/eye topical sodium salt QD, Day 6, AM, OS",23.2
same,"IOP, group Average","Group 4: 1.2 mg/eye topical sodium salt QD, Day 7, AM, OD",22.6
same,"IOP, group Average","Group 4: 1.2 mg/eye topical sodium salt QD, Day 7, AM, OS",23.0
same,"IOP, group Average","Group 4: 1.2 mg/eye topical sodium salt QD, Day 7, PM, OD",24.6
same,"IOP, group Average","Group 4: 1.2 mg/eye topical sodium salt QD, Day 7, PM, OS",24.7
same,"IOP, group Average","Group 4: 1.2 mg/eye topical sodium salt QD, Day 8, AM (24 hours after final dose), OD",22.7
same,"IOP, group Average","Group 4: 1.2 mg/eye topical sodium salt QD, Day 8, AM (24 hours after final dose), OS",22.8
same,"IOP, group Average","Group 5: 10 mg/kg subcutaneous sodium salt BID, Day 1, AM, OD",22.3
same,"IOP, group Average","Group 5: 10 mg/kg subcutaneous sodium salt BID, Day 1, AM, OS",23.6
same,"IOP, group Average","Group 5: 10 mg/kg subcutaneous sodium salt BID, Day 1, PM, OD",23.3
same,"IOP, group Average","Group 5: 10 mg/kg subcutaneous sodium salt BID, Day 1, PM, OS",23.6
same,"IOP, group Average","Group 5: 10 mg/kg subcutaneous sodium salt BID, Day 2, AM, OD",21.5
same,"IOP, group Average","Group 5: 10 mg/kg subcutaneous sodium salt BID, Day 2, AM, OS",21.7
same,"IOP, group Average","Group 5: 10 mg/kg subcutaneous sodium salt BID, Day 3, AM, OD",20.7
same,"IOP, group Average","Group 5: 10 mg/kg subcutaneous sodium salt BID, Day 3, AM, OS",21.3
same,"IOP, group Average","Group 5: 10 mg/kg subcutaneous sodium salt BID, Day 4, AM, OD",21.9
same,"IOP, group Average","Group 5: 10 mg/kg subcutaneous sodium salt BID, Day 4, AM, OS",22.2
same,"IOP, group Average","Group 5: 10 mg/kg subcutaneous sodium salt BID, Day 5, AM, OD",22.4
same,"IOP, group Average","Group 5: 10 mg/kg subcutaneous sodium salt BID, Day 5, AM, OS",23.4
same,"IOP, group Average","Group 5: 10 mg/kg subcutaneous sodium salt BID, Day 6, AM, OD",24.5
same,"IOP, group Average","Group 5: 10 mg/kg subcutaneous sodium salt BID, Day 6, AM, OS",25.0
same,"IOP, group Average","Group 5: 10 mg/kg subcutaneous sodium salt BID, Day 7, AM, OD",23.9
same,"IOP, group Average","Group 5: 10 mg/kg subcutaneous sodium salt BID, Day 7, AM, OS",23.9
same,"IOP, group Average","Group 5: 10 mg/kg subcutaneous sodium salt BID, Day 7, PM, OD",24.1
same,"IOP, group Average","Group 5: 10 mg/kg subcutaneous sodium salt BID, Day 7, PM, OS",24.3
same,"IOP, group Average","Group 5: 10 mg/kg subcutaneous sodium salt BID, Day 8, AM (24 hours after final dose), OD",24.5
same,"IOP, group Average","Group 5: 10 mg/kg subcutaneous sodium salt BID, Day 8, AM (24 hours after final dose), OS",24.0

# Source: patent publication US10952992B2, “Methods of treating intraocular pressure with activators of Tie-2” (Aerpio Pharmaceuticals, Inc., priority 2015, dated 2021)
